Reference: ChEMBL document CHEMBL1201862, “PubChem BioAssay data set” (2004)
Active and inactive are the calls of the source. For most assays here, no stated cut-off is given here; in the data, actives have a measured EC50 and inactives only a lower limit.

How the values were obtained:
[1] = Trypanosoma cruzi growth suppression in host cells – NIH3T3 host cells, beta-gal luminescence, confirmation (AID 2044); format: functional, cell-based;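 further: intracellular parasites grown in NIH/3T3 mouse fibroblasts as host cells; luminescent beta-galactosidase reporter signal from transgenic T. cruzi replicating inside host cells; inhibitors lower the luminescence signal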
[2] = NIH3T3 cell viability loss – ATP luminescence, mouse fibroblasts, counter-screen, dose response (AID 2010); format: functional, cell-based; conditions: NIH3T3;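 further: cells exposed to compound for about 90 hours before reading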
Cytochrome P450 3A4 = Cytochrome P450 3A4 (Homo sapiens, UniProt P08684);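 further: CYP3A4 tested as one member of a cytochrome P450 panel screen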
cells = format: functional
[3] = viability of uninfected HEp-2 cells – cell-based, HTS, cytotoxicity control for RSV inhibitor project, dose response (AID 2410); format: functional; conditions: human respiratory syncytial virus
[4] = test system: Streptococcus sp. 'group A'; experiment: Streptococcus pyogenes SK(-)GAS viability under kanamycin – luminescence, BacTiterGlo, confirmation, counter-screen for streptokinase expression inhibitor project, dose response (AID 1900); format: functional, organism-based; conditions: Streptococcus sp. 'group A'
Streptokinase A = target: T1, Streptokinase A (Streptococcus pyogenes serotype M1, UniProt P10520); experiment: viability-normalized secreted streptokinase activity reduction – plasminogen activation absorbance, OD405, dose response (AID 1914); format: functional, Streptococcus pyogenes M1 GAS;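 further: secreted streptokinase activity via plasminogen activation per viability signal from cell pellet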
T1 sequence (P10520 whole entry): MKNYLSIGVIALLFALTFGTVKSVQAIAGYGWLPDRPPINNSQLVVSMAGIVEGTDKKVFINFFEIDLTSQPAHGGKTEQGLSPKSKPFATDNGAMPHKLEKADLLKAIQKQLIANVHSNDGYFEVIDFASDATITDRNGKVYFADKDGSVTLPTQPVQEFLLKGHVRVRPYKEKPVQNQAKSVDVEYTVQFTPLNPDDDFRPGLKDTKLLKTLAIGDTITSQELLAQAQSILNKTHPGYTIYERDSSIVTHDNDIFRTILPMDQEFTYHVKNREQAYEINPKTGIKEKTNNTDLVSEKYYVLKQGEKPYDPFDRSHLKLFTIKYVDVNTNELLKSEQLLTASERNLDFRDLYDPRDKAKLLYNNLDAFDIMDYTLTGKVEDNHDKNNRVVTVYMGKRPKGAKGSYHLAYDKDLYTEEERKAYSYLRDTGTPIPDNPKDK

Streptococcus = experiment: GAS UMAA2166 growth inhibition – luminescence, BacTiterGlo, counter-screen for streptokinase expression inhibitor project, dose response (AID 1915); format: functional, organism-based; conditions: Streptococcus;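 further: potency for reduction of bacterial viability or growth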

Chain of Cytochrome P450 3A4 (P08684 whole entry): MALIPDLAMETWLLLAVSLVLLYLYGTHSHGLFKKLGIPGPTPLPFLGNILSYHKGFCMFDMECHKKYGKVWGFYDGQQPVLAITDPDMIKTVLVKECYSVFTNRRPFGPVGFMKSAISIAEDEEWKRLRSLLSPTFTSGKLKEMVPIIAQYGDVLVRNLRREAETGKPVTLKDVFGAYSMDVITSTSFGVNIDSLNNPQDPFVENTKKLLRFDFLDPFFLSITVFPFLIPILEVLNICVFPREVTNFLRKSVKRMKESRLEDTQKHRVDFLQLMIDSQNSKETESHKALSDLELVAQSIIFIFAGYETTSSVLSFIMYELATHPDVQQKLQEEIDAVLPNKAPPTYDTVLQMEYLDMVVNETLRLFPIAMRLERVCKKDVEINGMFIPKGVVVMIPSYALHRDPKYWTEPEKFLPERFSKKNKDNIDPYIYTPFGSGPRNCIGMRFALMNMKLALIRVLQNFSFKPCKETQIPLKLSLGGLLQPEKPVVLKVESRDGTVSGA

O=C(NCc1ccco1)C(c1ccccc1F)N(Cc1cccnc1)C(=O)Cn1nnc2ccccc21 (stereo not given)
EC50 [1]: 1.68 µM (active) | EC50 [2]: > 60 µM (not active)

COC(=O)c1nn(-c2ccc(OC)cc2)c(=O)cc1Oc1cccc(Cl)c1
AC50 (Cytochrome P450 3A4): 39.8 µM (inconclusive)

COc1cccc(C(=O)OCC(=O)c2ccc(Br)s2)c1OC
IC50 (cells): 29.7 µM (active)

CCN(c1ccccc1)S(=O)(=O)c1ccc(OC)c(NC(=O)CNCCc2ccccc2)c1
EC50 [1]: 1.72 µM (active) | CC50 [3]: 14.4 µM (active) | EC50 [2]: > 60 µM (not active)

CC(C)(C)n1nnnc1C(c1cccnc1)N1CCN(c2ccccc2)CC1 (stereo not given)
EC50 [1]: 0.666 µM (active) | EC50 [2]: > 60 µM (not active)

Cc1cccc(C(=O)NNC(=O)c2c(O)c3ccccc3n(C)c2=O)c1
EC50 [4]: 4.62 µM (active) | EC50 (Streptokinase A): > 150 µM (not active) | EC50 (Streptococcus): 9.81 µM (active)

CN1CCN(C(=O)CCCN2C(=O)/C(=C/c3ccc(Cl)cc3)SC2=S)CC1
CC50 [3]: 13.5 µM (active)

CCOC(=O)c1c(NC(=O)CSc2nnnn2-c2ccccc2OCC)sc2c1CC(C)(C)NC2(C)C
EC50 [1]: 1.31 µM (active) | EC50 [2]: > 30 µM (not active)

CC1CCCC(C)N1c1nnc(NC(=O)c2cc(-c3ccc(Br)cc3)on2)s1 (stereo not given)
EC50 [4]: 2.33 µM (active) | EC50 (Streptokinase A): > 150 µM (not active) | EC50 (Streptococcus): 25.2 µM (active)

Cc1ccc2sc(NNC(=O)c3cc(-c4cccs4)nc4ccccc34)nc2c1C
EC50 [4]: 0.758 µM (active) | EC50 (Streptococcus): 1.48 µM (active)

COc1ccc(C(=O)C2CCCN(Cc3ccc4nonc4c3)C2)c(OC)c1 (stereo not given)
EC50 [1]: 0.97 µM (active) | EC50 [2]: > 60 µM (not active)

COc1ccccc1CN1CCCC(CNC(=O)c2cccc3ccccc23)C1 (stereo not given)
EC50 [1]: 0.679 µM (active) | EC50 [2]: > 60 µM (not active)

Cc1ccc(N2C(=O)CC(Sc3nc4ccccc4o3)C2=O)cc1Cl (stereo not given)
EC50 [1]: 2.16 µM (active) | EC50 [2]: 8.27 µM (active)

Cc1nc(NC(=O)c2ccc(Cl)cc2)sc1-c1csc(Nc2cccc(F)c2)n1
EC50 [4]: 1.67 µM (active) | EC50 (Streptokinase A): > 150 µM (not active) | EC50 (Streptococcus): 21.4 µM (active)

COc1ccc(/C=C/C(=O)Nc2cccc(S(=O)(=O)NC3=NCCCCC3)c2)cc1
CC50 [3]: 27.9 µM (active)

Fc1ccc(CNc2nc(-c3cccnc3)nc3ccccc23)cc1
EC50 [1]: 0.67 µM (active) | EC50 [2]: > 60 µM (not active)

CN(C)CCOCCOc1ccc(Cl)cc1Br
EC50 [1]: 0.937 µM (active) | EC50 [2]: > 60 µM (inconclusive)

Cc1cc(O)c(NC(=O)c2cc([N+](=O)[O-])ccc2Cl)cc1C
CC50 [3]: 23.3 µM (active)

Clc1ccccc1Sc1ccc(-c2ccccn2)s1
EC50 [4]: 17.6 µM (active) | EC50 (Streptokinase A): > 150 µM (not active) | EC50 (Streptococcus): > 150 µM (not active)

CSc1ccc(S(=O)(=O)NCC(=O)OCC(=O)N2CCCC2=O)cc1[N+](=O)[O-]
EC50 [4]: 4.7 µM (active) | EC50 (Streptokinase A): > 150 µM (not active) | EC50 (Streptococcus): > 150 µM (not active)

CC1CCN(C(=O)c2ccc(-c3ccccc3Cl)o2)CC1
IC50 (cells): 33.8 µM (active)

CCCSc1nsc(NC(=O)CCC)n1
EC50 [1]: 1.04 µM (active) | EC50 [2]: > 60 µM (not active)

CC(=O)NCCn1c(SCc2cc(F)ccc2F)nc2ccccc2c1=O
EC50 [1]: 0.487 µM (active) | EC50 [2]: > 60 µM (not active)

CCCCC(=O)Nc1ccc(C(=O)OC2CCCCC2)cc1
CC50 [3]: 22.8 µM (active)

CCCCOc1ccc(-c2cn3ccccc3n2)cc1[N+](=O)[O-]
CC50 [3]: 38.7 µM (active)

c1ccc(Nc2nc3ccccc3[nH]2)nc1
EC50 [4]: 3.59 µM (active) | EC50 (Streptokinase A): > 150 µM (not active) | EC50 (Streptococcus): > 150 µM (not active)

CCOc1cc2c(cc1OCC)-n1cccc1C(c1cc(OC)ccc1F)NC2 (stereo not given)
CC50 [3]: 39.8 µM (active)

c1ccc(-c2cccc(N3CC[C@@]4(CCCNC4)C3)c2)cc1
AC50 (Cytochrome P450 3A4): 15.8 µM (inconclusive)

C1=NCCc2c1[nH]c1ccccc21.[O-][Cl+3]([O-])([O-])O
CC50 [3]: 10.3 µM (active)

O=C(Nc1ccccc1N1CCN(C(=O)c2ccc(Cl)cc2)CC1)c1ccc(Br)cc1
EC50 [1]: 1.29 µM (active) | EC50 [2]: > 60 µM (not active)

Cc1cc(C)c2[nH]c(O)c(N=Nc3ccc(C(=O)O)cc3)c2c1
EC50 [4]: 4.53 µM (active) | EC50 (Streptokinase A): > 150 µM (not active) | EC50 (Streptococcus): 11.1 µM (active)

N#Cc1ccccc1-c1ccc2ncnc(N3CCNCC3)c2c1
AC50 (Cytochrome P450 3A4): 31.6 µM (inconclusive)

Cn1nc(-c2ccccc2)c(CSc2ccccc2Cl)c1Cl
EC50 [4]: 22.8 µM (active) | EC50 (Streptokinase A): 22.8 µM (active) | EC50 (Streptococcus): > 150 µM (not active)

COc1ccc(-n2nc3cc(C)c(NC(=O)C(C)C)cc3n2)cc1
EC50 [4]: > 150 µM (not active) | EC50 (Streptokinase A): > 150 µM (not active) | EC50 (Streptococcus): > 150 µM (not active)

CN1CCN(c2ccc(S(=O)(=O)N3CCCCC3)cc2NC(=O)COc2cccc(Cl)c2)CC1
EC50 [1]: 0.629 µM (active) | EC50 [2]: > 30 µM (not active)

Cc1ccc(OCC(=O)Nc2cc(S(=O)(=O)N3CCCCC3)ccc2N2CCN(C)CC2)c(C)c1
EC50 [1]: 0.171 µM (active) | EC50 [2]: > 60 µM (not active)

CC[C@H]1C2=C3C(CC[C@H]4C(OCc5ccc(F)cc5C(F)(F)F)OC[C@](C)([C@@H]34)N(C(=O)OC(C)(C)C)C2)C(COC)C1COC (stereo not given in full)
AC50 (Cytochrome P450 3A4): 10 µM (inconclusive)

Cc1ccc(C2(C(F)(F)F)N=C3Sc4cc(C)cc(C)c4N3C(=O)N2)cc1 (stereo not given)
CC50 [3]: 23 µM (active)

CCS(=O)(=O)Nc1ccc(C2=NN(C(=O)c3ccco3)C(c3cccc(F)c3)C2)cc1 (stereo not given)
CC50 [3]: 32.9 µM (active)

CCN(CCCNC(=O)CNC(=O)c1nn(-c2ccc(OC)cc2)c(=O)c2ccccc12)c1cccc(C)c1
CC50 [3]: 46 µM (active)

CC(=O)Nc1cccc(-c2csc(Nc3ccc(Cl)cn3)n2)c1
CC50 [3]: 9.11 µM (active)

Cc1nc(N2CCN(Cc3ccccc3)CC2)nc2c1C(=O)CC(C)C2 (stereo not given)
EC50 [1]: 1.42 µM (active) | EC50 [2]: > 60 µM (not active)

COc1ccccc1CN1CCCC2(CCN(C(=O)c3ccco3)CC2)C1
AC50 (Cytochrome P450 3A4): 25.1 µM (inconclusive)

Cc1cnc(CNc2ccnc(-c3c(C)noc3C)n2)cn1
AC50 (Cytochrome P450 3A4): 10 µM (inconclusive)

COc1cc2c3cc1Oc1c(OC)c(OC)cc4c1[C@@H](Cc1ccc(O)c(c1)Oc1ccc(cc1)C[C@@H]3N(C)CC2)CN(C)C4
AC50 (Cytochrome P450 3A4): 2.51 µM (inconclusive)

Cc1ccc(C(=O)OC2OC(=O)C(Cl)=C2N2CCOCC2)cc1 (stereo not given)
EC50 [4]: 0.884 µM (active) | EC50 (Streptococcus): 2.04 µM (active)

COc1ccc(-n2c(=O)c(-c3cccs3)nc3cnc(Nc4cccc(OC)c4)nc32)cc1
AC50 (Cytochrome P450 3A4): 1.58 µM (inconclusive)

COc1ccc(C(=O)Nc2ccccc2-c2nnn(CC(=O)Nc3ccc4c(c3)OCCO4)n2)cc1
EC50 [4]: 41.1 µM (active) | EC50 (Streptokinase A): > 150 µM (not active) | EC50 (Streptococcus): > 150 µM (inconclusive)

Cc1ccc(C)c(-c2nnc(NC(=O)CCS(=O)(=O)c3ccccc3)o2)c1
EC50 [4]: 8.03 µM (active) | EC50 (Streptokinase A): > 150 µM (not active) | EC50 (Streptococcus): 141 µM (active)

CCOc1ccccc1NC(=O)NCc1ccc2c(c1)OCO2
EC50 [4]: > 150 µM (not active) | EC50 (Streptokinase A): > 150 µM (not active) | EC50 (Streptococcus): > 150 µM (not active)

CCOC(=O)C1CCN(C2=C(NS(=O)(=O)c3ccc(Cl)cc3)C(=O)c3ccccc3C2=O)CC1
EC50 [4]: 8.11 µM (active) | EC50 (Streptokinase A): 27 µM (active) | EC50 (Streptococcus): > 150 µM (not active)

COc1ccc(C(C(=O)NC2CCCCC2)N(C(=O)Cc2c[nH]c3ccccc23)c2ccccc2)cc1OC (stereo not given)
CC50 [3]: 27.2 µM (active)

Cc1nc(S)c2c(n1)-c1ccccc1CC21CCCCC1
EC50 [4]: 1.15 µM (active) | EC50 (Streptococcus): 3.57 µM (active)

Cc1ccc(S(=O)(=O)Nc2cccc(-c3ccc(N4CCCCCC4)nn3)c2)cc1C
CC50 [3]: 25.8 µM (active)

CCCOc1ccc(N2CC(C(=O)Nc3ccccc3F)CC2=O)cc1 (stereo not given)
IC50 (cells): 32.1 µM (active)

CNC(=O)c1sc(-c2cccnc2)nc1C
AC50 (Cytochrome P450 3A4): 31.6 µM (inconclusive)

NCCCP(=O)(O)O
AC50 (Cytochrome P450 3A4): 0.158 µM (inconclusive)

N#C/C(=N\Nc1ccc(S(=O)(=O)N2CCOCC2)cc1)C(N)=S
EC50 [4]: > 150 µM (not active) | EC50 (Streptokinase A): > 150 µM (not active) | EC50 (Streptococcus): > 150 µM (not active)

C/C(=N\NC(=S)Nc1ccccc1C)c1cc2ccccc2o1
EC50 [1]: 2.18 µM (active) | EC50 [2]: > 60 µM (not active)

Cc1cc(N/N=C/c2cccc(Br)c2)nc2ccccc12
EC50 [4]: 7.14 µM (active) | EC50 (Streptokinase A): > 150 µM (not active) | EC50 (Streptococcus): 7.4 µM (active)

Cc1nn(-c2ccc([N+](=O)[O-])cc2)c(O)c1/C=N/CCN1CCN(C(=O)c2ccc(Br)cc2)CC1
EC50 [1]: 10.7 µM (active) | EC50 [2]: 39.9 µM (active)

CC(C)CCn1c(=O)c(C(=O)N/N=C/c2cccc(F)c2)c(O)c2ccccc21
EC50 [4]: 2.24 µM (active) | EC50 (Streptococcus): 7.41 µM (active)

N[C@@H](Cc1c[nH]cn1)C(=O)O [HISTIDINE]
AC50 (Cytochrome P450 3A4): 0.794 µM (inconclusive)
